In patent US10105395B2, “Microvesicles (MVs) derived from adult stem cells for use in the therapeutic treatment of a tumor disease” (Fresenius Medical Care Deutschland GmbH, priority 2010, dated 2018):

What was measured:
Type in all cases: cell-based, human
[1] = system: KS cells (Kaposi's sarcoma cells); assay: TUNEL apoptotic assay, MVs from MSCs; details: 24 and 48 hours, compared to vehicle alone; doxorubicin 100 ng/ml
Procedure: (§1) HepG2, MCF-7, SKOV-3, KS cells, HUVECs or TECs were seeded at 8,000 cells/well into 96-well plated in DMEM (Sigma) with 10% FCS and in the presence of doxorubicin (100 ng/ml, Sigma) or different concentrations of MVs (10 and 30 μg/ml) pre-treated or not with RNase. Apoptosis was assessed by TUNEL assay (ApopTag Oncor, Gaithersburg, Md., USA). After 24 or 48 hours of treatment, the cells were washed with PBS, fixed in 1% paraformaldehyde pH 7.4 for 15 minutes at 4° C., washed twice in PBS and then post-fixed in pre-cooled ethanol-acetic acid 2:1 for 5 minutes at −20° C. The samples were treated with the enzyme terminal deoxynucleotidyl transferase (TdT). The cells were then treated with heated anti-digoxigenin conjugate with fluorescein and incubated for 30 minutes at room temperature. The samples were mounted in medium containing 1 μg/ml of propidium iodide and the cells analyzed by immunofluorescence. The results are expressed as the percentage of green fluorescence emitting cells (apoptotic cells) versus red fluorescence emitting cells (total cells).

HepG2 cells = assay: TUNEL apoptotic assay, MVs from MSCs; details: 24 and 48 hours, compared to vehicle alone; doxorubicin 100 ng/ml
Procedure: as §1

HepG2 hepatoma cell line = assay: TUNEL apoptosis assay, MVs from HLSCs; details: MVs 30 μg/ml; vincristine 100 ng/ml; 24 hours
Procedure: Apoptosis was evaluated using the terminal dUTP nickend labeling assay (ApoTag; Oncor, Gaithersburg, Md.). Cells ([…]) were cultured in 96-well plate, suspended in phosphate-buffered saline (PBS) and fixed in 1% paraformaldehyde in PBS, pH 7.4, for 15 minutes at 4° C. followed by pre-cooled ethanol/acetic acid (2:1) for 5 minutes at −20° C. Cells were treated with terminal deoxynucleotide transferase enzyme and incubated in a humidified chamber for 1 hour at 37° C. and then treated with warmed fluorescein isothiocyanate-conjugated antidigoxigenin for 30 minutes at room temperature. After washing, samples were mounted in a medium containing […] of propidium iodide and the cells were analyzed by immunofluorescence.
The ability of HLSC-derived MVs to induce apoptosis on HepG2 was evaluated. Briefly, HepG2 were seeded at a density of 8,000 cells/well into 96-well plates in DMEM with 10% FCS and apoptosis was induced by culture in the absence of FCS, by treatment with vincristine (100 ng/ml), or doxorubicin (50 ng/ml), two mitotic inhibitors used in cancer chemotherapy, or by MV treatment (30 μg/ml). […] Apoptosis was evaluated using the TUNEL assay analysis at […].

## COc1cccc2c1C(=O)c1c(O)c3c(c(O)c1C2=O)C[C@@](O)(C(=O)CO)C[C@@H]3O[C@H]1C[C@H](N)[C@H](O)[C@H](C)O1 [doxorubicin]
[1]
  apoptosis of KS cells (Tunel assay): apoptosis induced by doxorubicin
HepG2 cells
  apoptosis of HepG2 cells (Tunel assay): apoptosis induced by doxorubicin

## CC[C@]1(O)C[C@H]2CN(CCc3c([nH]c4ccccc34)[C@@](C(=O)OC)(c3cc4c(cc3OC)N(C=O)[C@H]3[C@@](O)(C(=O)OC)[C@H](OC(C)=O)[C@]5(CC)C=CCN6CC[C@]43[C@@H]65)C2)C1 [vincristine]
HepG2 hepatoma cell line
  HepG2 apoptosis (TUNEL assay): induced by vincristine
